Test results as given in PMC11881035, “^68Ga-Labeled Glycopeptides as Effective Tools for Liver Function Imaging” (Molecular Pharmaceutics, 2025).
Like-named read-outs stand apart in the source and are kept apart here. Where a SMILES comes first, the peptide text is derived from it. The star is where a group is joined. X1 = O=C(CCCCc1cn([C@@H]2O[C@H](CO)[C@H](O)[C@H](O)[C@H]2O)nn1)*; NODAGA = O=C(O)CN1CCN(CC(=O)O)CCN(C(CCC(=O)*)C(=O)O)CC1; GABA = NCCCC(=O)O

Key:
[1] = complex stability in human blood serum; type: in vitro ADME
Protocol: (§1) The ^68Ge/^68Ga generator, devices for analytical HPLC, semipreparative HPLC, mass spectrometry, radio-thin layer chromatography, gamma counter and animal models for biodistribution and imaging studies including the image reconstruction procedures were the same as described before.[22] Stability assays in PBS and human blood serum, protein binding as well as determination of log D values followed established protocols.[25] Binding affinities (IC50) of selected ligands were determined in an isolated receptor-based assay according to a previously published procedure with minor modifications.[22] Dilutions of nonradioactive complexes were made with PBS + 0.1% BSA (10^–5–10^–12 M). Preparation of [^125I]I-Asialoorosomucoid which serves as the radioactive standard ligand has been published recently.[21]

[2] = complex stability in PBS; type: physicochemical
Protocol: as §1

[3] = protein binding in human serum; type: in vitro ADME; settings: human, serum
Protocol: as §1

[4] = log D determination; type: physicochemical
Protocol: as §1

[5] = biodistribution in healthy BALB/c mice; settings: mouse, in vivo
Protocol: as §1
(§2) Animal experiments were performed in accordance with the Austrian animal experiments law (BGBl. I Nr. 114/2012) and the institution’s animal welfare standards as approved by the Austrian Federal Ministry of Education, Science and Research (BMBWF, 2022–0.311.708). Imaging experiments were conducted at Werner Siemens Imaging Center (Tübingen, Germany) according to the German animal welfare act as approved by the local authorities (R5/19 G, R09/21 G).
(§3) Figure 2 Biodistribution data (% ID/g) of ^68Ga-labeled NODAGA-GalNAc-NonaLysan, NODAGA-NonaLysan, NODAGA-HexaLysan, and NODAGA-TriLysan in healthy BALB/c mice at 10, 30, and 60 min p.i. (100 pmol, 1 MBq).

[6] = tested on: healthy female BALB/c mice; assay: biodistribution in healthy BALB/c mice; settings: mouse, in vivo
Protocol: as §1, §2, §3

[7] = 2 min, read-out: protein binding (%) (converted)
[8] = 30 min, read-out: protein binding (%) (converted)

NC(=O)CNC(=O)CNC(=O)[C@H](CCCCNC(=O)CCCCc1cn([C@@H]2O[C@H](CO)[C@H](O)[C@H](O)[C@H]2O)nn1)NC(=O)CNC(=O)CNC(=O)[C@H](CCCCNC(=O)CCCCc1cn([C@@H]2O[C@H](CO)[C@H](O)[C@H](O)[C@H]2O)nn1)NC(=O)CNC(=O)CNC(=O)[C@H](CCCCNC(=O)CCCCc1cn([C@@H]2O[C@H](CO)[C@H](O)[C@H](O)[C@H]2O)nn1)NC(=O)CCCNC(=O)CCC(C(=O)O)N1CCN(CC(=O)O)CCN(CC(=O)O)CC1 (stereo partly drawn) [[^68Ga]Ga-NODAGA-TriLysan, metal not drawn] ({NODAGA-GABA}-K(X1)GGK(X1)GGK(X1)GG-NH2)
complex stability in serum (% intact ligand) ([1]; 2 min): 99.9% | complex stability in serum (% intact ligand) ([1]; 30 min): 99.9% | complex stability in serum (% intact ligand) ([1]; 60 min): 99.9% | complex stability in serum (% intact ligand) ([1]; 120 min): 99.9% | complex stability in PBS (% intact ligand) ([2]; 2 min): 99.7% | complex stability in PBS (% intact ligand) ([2]; 30 min): 99.8% | complex stability in PBS (% intact ligand) ([2]; 60 min): 99.8% | complex stability in PBS (% intact ligand) ([2]; 120 min): 99.8% | fraction unbound [3, 7]: 0.924 | fraction unbound [3, 8]: 0.945 | fraction unbound ([3]; 60 min, read-out: protein binding (%) (converted)): 0.908 | fraction unbound ([3]; 120 min, read-out: protein binding (%) (converted)): 0.864 | logD [4]: -3.52 | tissue uptake at 10 min ([5]; 10 min p.i., read-out: Blood uptake): 3.6 ± 0.1 %ID/g | tissue uptake at 10 min ([5]; 10 min p.i., read-out: Femur uptake): 0.9 ± 0.3 %ID/g | tissue uptake at 10 min ([5]; 10 min p.i., read-out: Heart uptake): 1.4 ± 0.01 %ID/g | tissue uptake at 10 min ([5]; 10 min p.i., read-out: Intestine uptake): 1.2 ± 0.3 %ID/g | tissue uptake at 10 min ([5]; 10 min p.i., read-out: Kidneys uptake): 7.6 ± 1.4 %ID/g | tissue uptake at 10 min ([5]; 10 min p.i., read-out: Liver uptake): 9.5 ± 1.6 %ID/g | tissue uptake at 10 min ([5]; 10 min p.i., read-out: Lung uptake): 2.6 ± 0.2 %ID/g | tissue uptake at 10 min ([5]; 10 min p.i., read-out: Muscle uptake): 0.9 ± 0.1 %ID/g | tissue uptake at 10 min ([5]; 10 min p.i., read-out: Pancreas uptake): 1 ± 0.04 %ID/g | tissue uptake at 10 min ([5]; 10 min p.i., read-out: Spleen uptake): 1 ± 0.01 %ID/g | tissue uptake at 10 min ([5]; 10 min p.i., read-out: Stomach uptake): 1.6 ± 0.2 %ID/g | tissue uptake at 0.5 h ([5]; 30 min p.i., read-out: Blood uptake): 1.6 ± 0.2 %ID/g | tissue uptake at 0.5 h ([5]; 30 min p.i., read-out: Femur uptake): 0.4 ± 0.02 %ID/g | tissue uptake at 0.5 h ([5]; 30 min p.i., read-out: Heart uptake): 0.6 ± 0.04 %ID/g | tissue uptake at 0.5 h ([5]; 30 min p.i., read-out: Intestine uptake): 1.1 ± 0.02 %ID/g | tissue uptake at 0.5 h ([5]; 30 min p.i., read-out: Kidneys uptake): 5 ± 0.02 %ID/g | tissue uptake at 0.5 h ([5]; 30 min p.i., read-out: Liver uptake): 9.4 ± 2 %ID/g | tissue uptake at 0.5 h ([5]; 30 min p.i., read-out: Lung uptake): 1.2 ± 0.1 %ID/g | tissue uptake at 0.5 h ([5]; 30 min p.i., read-out: Muscle uptake): 0.4 ± 0.04 %ID/g | tissue uptake at 0.5 h ([5]; 30 min p.i., read-out: Pancreas uptake): 0.4 %ID/g | tissue uptake at 0.5 h ([5]; 30 min p.i., read-out: Spleen uptake): 0.4 ± 0.02 %ID/g | tissue uptake at 0.5 h ([5]; 30 min p.i., read-out: Stomach uptake): 0.9 ± 0.1 %ID/g | tissue uptake at 1 h ([5]; 60 min p.i., read-out: Blood uptake): 0.3 ± 0.01 %ID/g | tissue uptake at 1 h ([5]; 60 min p.i., read-out: Femur uptake): 0.1 ± 0.01 %ID/g | tissue uptake at 1 h ([5]; 60 min p.i., read-out: Heart uptake): 0.2 ± 0.01 %ID/g | tissue uptake at 1 h ([5]; 60 min p.i., read-out: Intestine uptake): 1 ± 0.3 %ID/g | tissue uptake at 1 h ([5]; 60 min p.i., read-out: Kidneys uptake): 2 ± 0.3 %ID/g | tissue uptake at 1 h ([5]; 60 min p.i., read-out: Liver uptake): 9.2 ± 0.3 %ID/g | tissue uptake at 1 h ([5]; 60 min p.i., read-out: Lung uptake): 0.5 ± 0.1 %ID/g | tissue uptake at 1 h ([5]; 60 min p.i., read-out: Muscle uptake): 0.1 %ID/g | tissue uptake at 1 h ([5]; 60 min p.i., read-out: Pancreas uptake): 0.2 ± 0.01 %ID/g | tissue uptake at 1 h ([5]; 60 min p.i., read-out: Spleen uptake): 0.2 %ID/g | tissue uptake at 1 h ([5]; 60 min p.i., read-out: Stomach uptake): 0.3 ± 0.01 %ID/g

NC(=O)CNC(=O)CNC(=O)[C@H](CCCCNC(=O)CCCCc1cn([C@@H]2O[C@H](CO)[C@H](O)[C@H](O)[C@H]2O)nn1)NC(=O)CNC(=O)CNC(=O)[C@H](CCCCNC(=O)CCCCc1cn([C@@H]2O[C@H](CO)[C@H](O)[C@H](O)[C@H]2O)nn1)NC(=O)CNC(=O)CNC(=O)[C@H](CCCCNC(=O)CCCCc1cn([C@@H]2O[C@H](CO)[C@H](O)[C@H](O)[C@H]2O)nn1)NC(=O)CNC(=O)CNC(=O)[C@H](CCCCNC(=O)CCCCc1cn([C@@H]2O[C@H](CO)[C@H](O)[C@H](O)[C@H]2O)nn1)NC(=O)CNC(=O)CNC(=O)[C@H](CCCCNC(=O)CCCCc1cn([C@@H]2O[C@H](CO)[C@H](O)[C@H](O)[C@H]2O)nn1)NC(=O)CNC(=O)CNC(=O)[C@H](CCCCNC(=O)CCCCc1cn([C@@H]2O[C@H](CO)[C@H](O)[C@H](O)[C@H]2O)nn1)NC(=O)CCCNC(=O)CCC(C(=O)O)N1CCN(CC(=O)O)CCN(CC(=O)O)CC1 (stereo partly drawn) [[^68Ga]Ga-NODAGA-HexaLysan, metal not drawn] ({NODAGA-GABA}-K(X1)GGK(X1)GGK(X1)GGK(X1)GGK(X1)GGK(X1)GG-NH2)
fraction unbound [3, 7]: 0.824 | fraction unbound [3, 8]: 0.782 | fraction unbound ([3]; protein binding (%)): 0.785 | logD [4]: -4.34 | tissue uptake at 10 min ([5]; Blood uptake): 2.1 ± 0.04 %ID/g | tissue uptake at 0.5 h ([5]; Blood uptake): 0.6 ± 0.1 %ID/g | tissue uptake at 1 h ([5]; Blood uptake): 1.1 ± 0.4 %ID/g | tissue uptake at 10 min ([5]; Femur uptake): 0.5 ± 0.1 %ID/g | tissue uptake at 0.5 h ([5]; Femur uptake): 0.3 ± 0.03 %ID/g | tissue uptake at 10 min ([5]; Heart uptake): 0.9 ± 0.1 %ID/g | tissue uptake at 0.5 h ([5]; Heart uptake): 0.4 ± 0.1 %ID/g | tissue uptake at 1 h ([5]; Heart uptake): 0.3 ± 0.02 %ID/g | tissue uptake at 10 min ([5]; Intestine uptake): 1.2 ± 0.3 %ID/g | tissue uptake at 0.5 h ([5]; Intestine uptake): 4 ± 0.3 %ID/g | tissue uptake at 1 h ([5]; Intestine uptake): 5.9 ± 1.7 %ID/g | tissue uptake at 10 min ([5]; Kidneys uptake): 4.8 ± 0.3 %ID/g | tissue uptake at 0.5 h ([5]; Kidneys uptake): 1.9 ± 0.2 %ID/g | tissue uptake at 1 h ([5]; Kidneys uptake): 1.3 ± 0.3 %ID/g | tissue uptake at 10 min ([5]; Liver uptake): 54.8 ± 3 %ID/g | tissue uptake at 0.5 h ([5]; Liver uptake): 55.5 ± 7.4 %ID/g | tissue uptake at 1 h ([5]; Liver uptake): 45.9 ± 11.8 %ID/g | tissue uptake at 10 min ([5]; Lung uptake): 1.6 ± 0.2 %ID/g | tissue uptake at 0.5 h ([5]; Lung uptake): 0.8 ± 0.1 %ID/g | tissue uptake at 1 h ([5]; Lung uptake): 0.6 ± 0.2 %ID/g | tissue uptake at 10 min ([5]; Muscle uptake): 0.9 ± 1.2 %ID/g | tissue uptake at 0.5 h ([5]; Muscle uptake): 0.6 ± 0.03 %ID/g | tissue uptake at 1 h ([5]; Muscle uptake): 0.4 ± 0.04 %ID/g | tissue uptake at 10 min ([5]; Pancreas uptake): 0.9 ± 0.1 %ID/g | tissue uptake at 0.5 h ([5]; Pancreas uptake): 0.7 ± 0.1 %ID/g | tissue uptake at 1 h ([5]; Pancreas uptake): 0.5 ± 0.1 %ID/g | tissue uptake at 10 min ([5]; Spleen uptake): 0.5 ± 0.1 %ID/g | tissue uptake at 0.5 h ([5]; Spleen uptake): 0.2 ± 0.1 %ID/g | tissue uptake at 1 h ([5]; Spleen uptake): 0.2 ± 0.02 %ID/g | tissue uptake at 10 min ([5]; Stomach uptake): 1.3 ± 0.3 %ID/g | tissue uptake at 0.5 h ([5]; Stomach uptake): 1.2 ± 0.3 %ID/g | tissue uptake at 1 h ([5]; Stomach uptake): 0.4 ± 0.1 %ID/g | Liver uptake ([6]; 0.5 h): 55.7 ± 7.4 % ID/g | Femur uptake ([6]; 1 h): 0 % ID/g
